According to patent US11807907B2, “Method for diagnosing and treating subjects having single nucleotide polymorphisms in chromosome 2, 2:107,510,000-107,540,000 locus” (NEURIM PHARMACEUTICALS (1991) LTD., priority 2021, dated 2023):
Marks after values point to notes of the source that are not given here.

Key:
[1] = tested on: patients with early symptomatic Alzheimer's disease; assay: Randomized, placebo controlled study of piromelatine in patients with early symptomatic Alzheimer's disease (cNTB, ADAS-Cog14, NPI, PSQI), analysed by 2:107,510,000-107,540,000 locus polymorphism carrier status; type: in vivo, human; parameters: key: ns = non-significant effect; deter = deterioration compared to placebo; conditions: locus polymorphism carriers; 5, 20 and 50 mg daily for 26 weeks; compared to placebo
Procedure: (§1) DNA extraction and SNP genotyping were performed as follows: For 107 patients, whole blood was collected at the time of enrollment, and genomic DNA was extracted from peripheral lymphocytes using a commercial kit. Variant genotyping of a combined Whole Genome and Whole Exome sequencing, was performed. The detection of variants associated with the response of the treatment was performed through a genome wide association study (GWAS) analysis (which is a known case-control paradigm). […] The general case-control allelic test was performed through a Cochran-Armitage trend test. […] The stratification was assessed by a complete-linkage hierarchical clustering using the pairwise population concordance as a constraint. […]
(§2) To further explore the relationship between these paradoxical responses and other variables in the study, changes in ADAS-Cog14 and relationships with the other variables for the intermediate dose (20 mg) of piromelatine were analyzed (Table 2). […]
(§3) To further explore the relationship between these paradoxical responses and other variables in the study, changes in cNTB, ADAS-Cog14 and PSQI for the low dose (5 mg) of piromelatine were analyzed (Table 3). […]

[2] = molecular target: 5-HT-6 receptor (Homo sapiens, UniProt P50406); assay: 5-HT receptor binding, 5-HT-6; conditions: read-out: IC50 (concentration causing 50% inhibition of binding)
Sequence of 5-HT-6 receptor (P50406 whole entry): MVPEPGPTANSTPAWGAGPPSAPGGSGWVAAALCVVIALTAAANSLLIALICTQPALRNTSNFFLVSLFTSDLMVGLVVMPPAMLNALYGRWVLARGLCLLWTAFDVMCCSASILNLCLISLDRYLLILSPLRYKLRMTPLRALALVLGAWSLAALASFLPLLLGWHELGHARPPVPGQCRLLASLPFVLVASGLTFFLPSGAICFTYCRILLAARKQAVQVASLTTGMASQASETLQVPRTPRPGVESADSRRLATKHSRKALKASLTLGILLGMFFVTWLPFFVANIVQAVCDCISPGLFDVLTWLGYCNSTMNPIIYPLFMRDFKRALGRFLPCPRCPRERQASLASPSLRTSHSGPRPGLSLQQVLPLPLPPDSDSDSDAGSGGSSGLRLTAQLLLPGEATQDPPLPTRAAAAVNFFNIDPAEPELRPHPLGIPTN

[3] = tested on: patients with early symptomatic Alzheimer's disease; assay: Randomized, placebo controlled study of piromelatine in patients with early symptomatic Alzheimer's disease (cNTB, ADAS-Cog14, NPI, PSQI), analysed by 2:107,510,000-107,540,000 locus polymorphism carrier status; type: in vivo, human; parameters: key: ns = non-significant effect; deter = deterioration; conditions: carriers (N = 12); 20 mg daily for 26 weeks
Procedure: as §1, §2, §3

[4] = molecular target: T1, 5HT1a (Homo sapiens, UniProt P08908); assay: 5-HT receptor radioligand binding assay, 5-HT-1a; parameters: expressed in transfected cells; host or cells: HEK-293; conditions: HEK-293 cells, 3H-OH-DPAT, read-out: IC50 (concentration causing 50% inhibition of binding)
T1 sequence (P08908 1-422): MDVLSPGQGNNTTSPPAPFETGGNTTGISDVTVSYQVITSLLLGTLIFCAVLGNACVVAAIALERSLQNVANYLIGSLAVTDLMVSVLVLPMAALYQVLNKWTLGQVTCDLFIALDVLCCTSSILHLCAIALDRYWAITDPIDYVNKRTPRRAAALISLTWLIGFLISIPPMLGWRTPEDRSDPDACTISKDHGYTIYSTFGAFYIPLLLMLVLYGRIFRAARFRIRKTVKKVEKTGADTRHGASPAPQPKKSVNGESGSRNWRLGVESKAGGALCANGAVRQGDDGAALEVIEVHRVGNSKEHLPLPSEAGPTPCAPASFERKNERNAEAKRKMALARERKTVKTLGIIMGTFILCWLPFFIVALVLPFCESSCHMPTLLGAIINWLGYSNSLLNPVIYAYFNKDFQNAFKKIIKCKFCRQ
Procedure: (§4) For receptor binding assays, stably expressing 5-HT1a, 1b, 1d and 2c receptors cells (HEK-293, rat cerebral cortex, CHO and HEK-293, respectively) were incubated with 0.3 or 1 nM of their respective radioligand (^3H—OH-DPAT, ^125I CYP, ^3H serotonin and ^3H-mesulergine) alone or in the presence of 1 nM to 10 μM of piromelatine. The bound radioligand was assessed. Non-specific binding was evaluated under the reaction contained with 8-OH-PTA, serotonin and RS-10221 (8-[5-(2,4-Dimethoxy-5-(4-trifluoromethylphenylsulphonamido)phenyl-5-oxopentyl]-1,3,8-triazaspiro[4.5]decane-2,4-dione hydrochloride).

[5] = molecular target: 5-HT-4 receptor (Homo sapiens, UniProt Q13639); assay: 5-HT receptor binding, 5-HT-4; conditions: read-out: IC50 (concentration causing 50% inhibition of binding)
Sequence of 5-HT-4 receptor (Q13639 whole entry): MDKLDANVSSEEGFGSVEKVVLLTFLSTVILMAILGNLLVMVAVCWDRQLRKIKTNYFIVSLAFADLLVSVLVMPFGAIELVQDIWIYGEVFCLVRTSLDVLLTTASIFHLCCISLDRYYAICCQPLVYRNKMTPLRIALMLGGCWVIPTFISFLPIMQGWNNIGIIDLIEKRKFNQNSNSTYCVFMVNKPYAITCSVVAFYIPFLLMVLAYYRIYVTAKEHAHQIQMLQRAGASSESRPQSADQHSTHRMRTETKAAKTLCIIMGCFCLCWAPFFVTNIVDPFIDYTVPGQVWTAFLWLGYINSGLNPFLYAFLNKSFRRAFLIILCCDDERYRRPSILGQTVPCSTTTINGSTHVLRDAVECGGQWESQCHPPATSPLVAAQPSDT

[6] = tested on: patients with early symptomatic Alzheimer's disease; assay: Randomized, placebo controlled study of piromelatine in patients with early symptomatic Alzheimer's disease (cNTB, ADAS-Cog14, NPI, PSQI), analysed by 2:107,510,000-107,540,000 locus polymorphism carrier status; type: in vivo, human; parameters: key to Improvement, cNTB / Improvement, PSQI: ns = non-significant effect; deter = deterioration compared to placebo
Procedure: DNA extraction and SNP genotyping were performed as follows: For 107 patients, whole blood was collected at the time of enrollment, and genomic DNA was extracted from peripheral lymphocytes using a commercial kit. Variant genotyping of a combined Whole Genome and Whole Exome sequencing, was performed. The detection of variants associated with the response of the treatment was performed through a genome wide association study (GWAS) analysis (which is a known case-control paradigm). […] The general case-control allelic test was performed through a Cochran-Armitage trend test. […] The stratification was assessed by a complete-linkage hierarchical clustering using the pairwise population concordance as a constraint. The SNP calling was done on the aligned BAM files using DRAGEN: support.illumina.com/help/DRAGEN_Germline_OLH_1000000083701/Content/Source/Informatics/Apps/DRAGENGermlineSmallVarCaller_appDRAG.htm and filter SNPs using VQSR: gatk.broadinstitute.org/hc/en-us/articles/360035531612-Variant-Quality-Score-Recalibration-VQSR.
To further explore the relationship between these paradoxical responses and other variables in the study, changes in ADAS-Cog14 and relationships with the other variables for the intermediate dose (20 mg) of piromelatine were analyzed (Table 2). […] Moreover, in this trial, 39% of patients treated with the 20 mg piromelatine that were not carriers of the 2:107,510,000-107,540,000 locus polymorphism improved (decreased)>4 points in the ADAS-Cog14 and thus were considered “responders (beneficial response)” vs. only 8% of the patients treated with the 20 mg piromelatine that were carriers of the 2:107,510,000-107,540,000 locus polymorphism (Table 2).
To further explore the relationship between these paradoxical responses and other variables in the study, changes in cNTB, ADAS-Cog14 and PSQI for the low dose (5 mg) of piromelatine were analyzed (Table 3). […] However, only carriers of a 2:107,510,000-107,540,000 locus polymorphism improved on the computerized Neuropsychological Test Battery (cNTB) upon treatment with the 5 mg piromelatine dose and the main performance domains being the episodic memory domain composite score and attention domain composite score.

[7] = molecular target: T2, 5-HT-1b receptor (Rattus norvegicus, UniProt P28564); assay: 5-HT receptor radioligand binding assay, 5-HT-1b; conditions: rat cerebral cortex, 125I CYP, read-out: IC50 (concentration causing 50% inhibition of binding)
T2 construct: stably expressing 5-HT1a, 1b, 1d and 2c receptors cells (HEK-293, rat cerebral cortex, CHO and HEK-293, respectively); from tissue; host or cells: rat cerebral cortex
T2 sequence (P28564 whole entry): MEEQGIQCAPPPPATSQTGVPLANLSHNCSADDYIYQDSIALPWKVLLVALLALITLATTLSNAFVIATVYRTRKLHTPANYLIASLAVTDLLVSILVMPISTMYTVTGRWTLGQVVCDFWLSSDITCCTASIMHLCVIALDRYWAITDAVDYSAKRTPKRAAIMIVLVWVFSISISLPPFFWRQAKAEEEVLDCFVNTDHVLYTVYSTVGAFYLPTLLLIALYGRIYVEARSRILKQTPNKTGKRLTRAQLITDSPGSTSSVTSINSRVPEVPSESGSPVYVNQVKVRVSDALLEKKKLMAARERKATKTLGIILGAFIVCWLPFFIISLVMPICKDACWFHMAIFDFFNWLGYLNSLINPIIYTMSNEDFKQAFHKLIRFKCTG
Procedure: as §4

[8] = molecular target: T3, 5-HT-2c receptor (Homo sapiens, UniProt P28335); assay: 5-HT receptor radioligand binding assay, 5-HT-2c; conditions: HEK-293 cells, 3H-mesulergine, read-out: IC50 (concentration causing 50% inhibition of binding)
T3 construct: expressed in transfected cells; host or cells: HEK-293
T3 sequence (P28335 33-458): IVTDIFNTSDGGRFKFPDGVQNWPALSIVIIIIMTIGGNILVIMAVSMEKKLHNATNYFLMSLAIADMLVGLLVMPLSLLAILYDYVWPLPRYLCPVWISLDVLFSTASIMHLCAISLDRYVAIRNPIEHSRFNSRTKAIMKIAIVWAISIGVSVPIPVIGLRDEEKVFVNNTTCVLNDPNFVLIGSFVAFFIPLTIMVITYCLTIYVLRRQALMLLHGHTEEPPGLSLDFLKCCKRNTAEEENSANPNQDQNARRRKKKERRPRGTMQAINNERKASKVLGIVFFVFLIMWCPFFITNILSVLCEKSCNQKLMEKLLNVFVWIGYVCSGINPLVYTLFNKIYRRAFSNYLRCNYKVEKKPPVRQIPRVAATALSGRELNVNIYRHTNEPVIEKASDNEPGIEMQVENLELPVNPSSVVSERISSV
Procedure: as §4

[9] = molecular target: 5-HT-7 receptor (Homo sapiens, UniProt P34969); assay: 5-HT receptor binding, 5-HT-7; conditions: read-out: IC50 (concentration causing 50% inhibition of binding)
Sequence of 5-HT-7 receptor (P34969 whole entry): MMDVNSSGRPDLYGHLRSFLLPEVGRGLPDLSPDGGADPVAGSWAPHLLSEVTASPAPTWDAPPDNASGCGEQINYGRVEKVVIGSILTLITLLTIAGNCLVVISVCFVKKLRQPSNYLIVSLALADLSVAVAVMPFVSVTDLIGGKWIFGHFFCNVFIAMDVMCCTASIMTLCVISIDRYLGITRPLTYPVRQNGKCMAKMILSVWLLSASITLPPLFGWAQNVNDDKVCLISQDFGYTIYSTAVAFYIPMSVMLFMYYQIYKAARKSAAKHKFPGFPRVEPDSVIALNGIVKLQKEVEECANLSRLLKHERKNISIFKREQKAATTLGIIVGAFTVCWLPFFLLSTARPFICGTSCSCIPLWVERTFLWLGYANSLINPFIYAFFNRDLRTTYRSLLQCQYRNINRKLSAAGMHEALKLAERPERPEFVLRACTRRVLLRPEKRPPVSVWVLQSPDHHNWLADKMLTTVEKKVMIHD

[10] = molecular target: T4, 5-HT-1d receptor (Rattus norvegicus, UniProt P28565); assay: 5-HT receptor radioligand binding assay, 5-HT-1d; conditions: CHO cells, 3H serotonin, read-out: IC50 (concentration causing 50% inhibition of binding)
T4 construct: expressed in transfected cells; host or cells: CHO
T4 sequence (P28565 whole entry): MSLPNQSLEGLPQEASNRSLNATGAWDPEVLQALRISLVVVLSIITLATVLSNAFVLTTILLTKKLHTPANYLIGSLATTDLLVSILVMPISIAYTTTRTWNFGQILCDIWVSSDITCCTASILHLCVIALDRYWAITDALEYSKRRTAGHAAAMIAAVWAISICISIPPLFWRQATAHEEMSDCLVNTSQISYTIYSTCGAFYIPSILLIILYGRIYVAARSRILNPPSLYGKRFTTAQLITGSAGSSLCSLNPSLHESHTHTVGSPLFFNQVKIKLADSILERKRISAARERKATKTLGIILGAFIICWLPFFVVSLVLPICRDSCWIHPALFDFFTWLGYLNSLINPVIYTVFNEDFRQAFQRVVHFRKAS
Procedure: as §4

[11] = tested on: 60 different ion channels and receptors of different neurotransmitters and hormones; assay: Full profile of binding to an additional 60 ion channels and receptors; conditions: 10 μM of piromelatine; none of the 60 assays
Procedure: A full profile of binding parameters to an additional 60 different ion channels and receptors of different neurotransmitters and hormones was performed (data not shown because none of the 60 receptor assays yielded a significant (>50%) inhibition by 10 μM of piromelatine).

[12] = molecular target: T1, 5HT1a; assay: Functional assay (HTRF, cAMP or IP1), 5HT1a; type: cell-based
Source text: (§5) For the functional assay, Homogeneous Time Resolved Fluorescence (HTRF) was used to measure cAMP or IP1 as products of the functional agonist or antagonist binding of 5-HT1a, 2a,2b, 2c, 4e, 6, 7 to their respective ligand (8-OG-DPAT or serotonin). Cellular dielectric spectroscopy was used to measure impedance as the product of the functional agonist or antagonist binding of 5HT1b and determine their respective ligand (serotonin).

[13] = molecular target: 5-HT-2a receptor (Homo sapiens, UniProt P28223); assay: 5-HT receptor binding, 5-HT-2a; conditions: read-out: IC50 (concentration causing 50% inhibition of binding)
Sequence of 5-HT-2a receptor (P28223 whole entry): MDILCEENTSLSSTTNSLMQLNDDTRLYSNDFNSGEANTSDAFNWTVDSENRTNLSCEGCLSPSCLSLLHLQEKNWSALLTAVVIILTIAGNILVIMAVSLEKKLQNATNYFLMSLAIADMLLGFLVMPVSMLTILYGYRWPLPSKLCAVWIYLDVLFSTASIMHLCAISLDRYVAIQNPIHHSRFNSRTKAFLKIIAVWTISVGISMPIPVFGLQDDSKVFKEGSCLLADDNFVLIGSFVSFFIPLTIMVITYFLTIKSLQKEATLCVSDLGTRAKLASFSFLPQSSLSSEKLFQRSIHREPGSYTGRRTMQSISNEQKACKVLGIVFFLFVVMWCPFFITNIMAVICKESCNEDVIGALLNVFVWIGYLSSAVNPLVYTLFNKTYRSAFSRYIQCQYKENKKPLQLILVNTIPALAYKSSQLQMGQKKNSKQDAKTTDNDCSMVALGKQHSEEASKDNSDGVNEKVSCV

[14] = molecular target: 5-HT1b (Homo sapiens, UniProt P28222); assay: Functional assay (cellular dielectric spectroscopy, impedance), 5-HT1b; type: cell-based
Sequence of 5-HT1b (P28222 whole entry, species assumed): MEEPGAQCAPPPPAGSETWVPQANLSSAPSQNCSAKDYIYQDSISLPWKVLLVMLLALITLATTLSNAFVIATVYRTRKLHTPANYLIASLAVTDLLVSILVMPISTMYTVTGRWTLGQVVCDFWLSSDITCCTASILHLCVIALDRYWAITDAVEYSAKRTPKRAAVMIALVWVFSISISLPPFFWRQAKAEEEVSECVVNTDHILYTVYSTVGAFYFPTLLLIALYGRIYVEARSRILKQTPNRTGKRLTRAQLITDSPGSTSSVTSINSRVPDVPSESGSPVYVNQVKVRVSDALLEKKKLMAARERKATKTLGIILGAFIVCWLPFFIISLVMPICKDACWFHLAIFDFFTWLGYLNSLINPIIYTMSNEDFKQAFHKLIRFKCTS
Source text: as §5

[15] = molecular target: 5-HT1d (Homo sapiens, UniProt P28221); assay: Functional assay, 5-HT1d; type: cell-based
Sequence of 5-HT1d (P28221 whole entry, species assumed): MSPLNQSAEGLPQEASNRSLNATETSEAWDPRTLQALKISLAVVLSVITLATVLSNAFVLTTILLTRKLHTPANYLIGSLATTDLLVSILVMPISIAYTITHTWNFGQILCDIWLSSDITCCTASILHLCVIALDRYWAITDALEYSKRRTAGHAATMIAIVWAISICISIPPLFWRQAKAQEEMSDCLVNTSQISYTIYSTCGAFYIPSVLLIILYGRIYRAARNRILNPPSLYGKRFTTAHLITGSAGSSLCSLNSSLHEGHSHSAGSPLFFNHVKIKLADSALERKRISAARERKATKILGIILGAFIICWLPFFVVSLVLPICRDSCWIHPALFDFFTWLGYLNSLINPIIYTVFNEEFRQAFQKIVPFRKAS
Source text: [Worded in the source for another target; this target is reported under the same test.] as §5

[16] = carriers (N = 12), 20 mg daily for 26 weeks
[17] = carriers, 5 mg daily for 26 weeks
[18] = carriers, 5 mg daily for 26 weeks (N = 5)
[19] = locus polymorphism carriers, 5, 20 and 50 mg daily for 26 weeks, N = 19
[20] = locus polymorphism non-carriers, 5, 20 and 50 mg daily for 26 weeks, N = 59
[21] = locus polymorphism non-carriers, 5, 20 and 50 mg daily for 26 weeks, compared to placebo
[22] = non-carriers (N = 23), 20 mg daily for 26 weeks
[23] = non-carriers, 5 mg daily for 26 weeks
[24] = non-carriers, 5 mg daily for 26 weeks (N = 19)
[25] = whole study population n=352, 5, 20 and 50 mg daily for 6 months

IC50 [2]: > 10 µM
IC50 [4]: 0.6 µM
IC50 [5]: > 10 µM
IC50 [7]: 8 µM
IC50 [8]: 2.8 µM
IC50 [9]: > 10 µM
IC50 [10]: 0.46 µM
inhibition in the 60 receptor assays [11]: ≤ 50%
agonist activity in the functional assay [12]: moderate agonist activity
IC50 [13]: > 10 µM
agonist activity in the functional assay [14]: Low agonist activity
agonist activity in the functional assay [15]: moderate agonist activity
Structure (SMILES): COc1ccc2[nH]cc(CCNC(=O)c3cc(=O)cco3)c2c1 [piromelatine, N-(2-(5-methoxy-1H-indol-3-yl)ethyl)-4-oxo-4H-pyran-2-carboxamide]
Improvement, ADAS-Cog14 [1]: deter
Improvement, ADAS-Cog14 [3]: deter
ADAS-Cog14 % Responders (decrease ≥ 4) [6, 16]: 8%
ADAS-Cog14 Change from baseline [6, 16]: 3.58
Improvement, NPI [6, 16]: yes
Improvement, PSQI [6, 16]: ns
Improvement, cNTB [6, 16]: yes
NPI Change from baseline [6, 16]: −3.08
PSQI Change from baseline [6, 16]: −0.17
cNTB Change from baseline [6, 16]: 0.44
ADAS Cogl4, Cohen's d vs placebo > 0.2 [6, 17]: improvement
PSQI, Cohen's d vs placebo > 0.2 [6, 17]: no improvement
cNTB, Cohen's d vs placebo > 0.2 [6, 17]: improvement
ADAS Cogl4 Change from Baseline [6, 18]: −6.40
PSQI Change from baseline [6, 18]: −3.40
cNTB Change from baseline [6, 18]: 0.28
cNTB attention domain composite score ([6]; carriers, 20 mg dose): improved
cNTB episodic memory domain composite score ([6]; carriers, 20 mg dose): improved
ADAS-Cog14 Change from baseline [6, 19]: 0.63*
cNTB Change from baseline [6, 19]: 0.38*
Improvement, cNTB ([6]; locus polymorphism carriers, 5, 20 and 50 mg daily for 26 weeks, compared to placebo): yes
ADAS-Cog14 Change from baseline [6, 20]: −1.07*
cNTB Change from baseline [6, 20]: −0.04
Improvement, ADAS-Cog14 [6, 21]: yes
Improvement, cNTB [6, 21]: ns
ADAS-Cog14 % Responders (decrease ≥ 4) [6, 22]: 39%
ADAS-Cog14 Change from baseline [6, 22]: −2.91
Improvement, ADAS-Cog14 [6, 22]: yes
Improvement, NPI [6, 22]: yes
Improvement, PSQI [6, 22]: yes
Improvement, cNTB [6, 22]: ns
NPI Change from baseline [6, 22]: −2.70
PSQI Change from baseline [6, 22]: −2.13
cNTB Change from baseline [6, 22]: −0.06
ADAS Cogl4, Cohen's d vs placebo > 0.20 [6, 23]: no improvement
PSQI, Cohen's d vs placebo > 0.20 [6, 23]: improvement
cNTB, Cohen's d vs placebo > 0.20 [6, 23]: deterioration
ADAS Cogl4 Change from Baseline [6, 24]: 1.11
PSQI Change from baseline [6, 24]: −1.11
cNTB Change from baseline [6, 24]: −0.21
ADAS-Cog14, drug vs placebo [6, 25]: no statistically significant differences
global composite score of the cNTB, drug vs placebo [6, 25]: no statistically significant differences
